Like-named read-outs stand apart in the source and are kept apart here.
Experiments:
[1] = ref 24 (Wang et al), cited from earlier work
[2] = ref 24 (Wang et al); cited from earlier work
monoamine transporter = details: in vitro transporter assays, similar to cocaine; ref 13 (Baumann et al.); cited from earlier work
[3] = 1,000 μg L^−1, room temp, 4°C and −20°C for 1 to 14 days; ref 29 (Johnson et al); cited from earlier work
[4] = Short-term stability in fortified plasma; assay type: physicochemical, human
[5] = cited from earlier work
[6] = for plasma concentration, Without hydrolysis / plasma concentration, Hydrolysis: LOQ 0.25 μg L^−1; for plasma concentration, Hydrolysis: with hydrolysis
[7] = High QC 750 μg L^−1, n=5, vs freshly fortified
[8] = Low QC 0.75 μg L^−1, n=5, vs freshly fortified
[9] = Medium QC 25 μg L^−1, n=5, vs freshly fortified
[10] = rat plasma, 0.5 mg kg-1 MDPV ip, 10 min
[11] = rat plasma, 0.5 mg kg-1 MDPV ip, 20 min
[12] = rat plasma, 0.5 mg kg-1 MDPV ip, 30 min
[13] = rat plasma, 0.5 mg kg-1 MDPV ip, 60 min
[14] = rat plasma, 0.5 mg kg-1 MDPV ip, 120 min
[15] = rat plasma, 0.5 mg kg-1 MDPV ip, 240 min
[16] = rat plasma, 0.5 mg kg-1 MDPV ip, 480 min
[17] = rat plasma, 0.5 mg kg-1 MDPV sc, 10 min
[18] = rat plasma, 0.5 mg kg-1 MDPV sc, 20 min
[19] = rat plasma, 0.5 mg kg-1 MDPV sc, 30 min
[20] = rat plasma, 0.5 mg kg-1 MDPV sc, 60 min
[21] = rat plasma, 0.5 mg kg-1 MDPV sc, 120 min
[22] = rat plasma, 0.5 mg kg-1 MDPV sc, 240 min
[23] = rat plasma, 0.5 mg kg-1 MDPV sc, 480 min

With `CCCC(C(=O)c1ccc2c(c1)OCO2)N1CCCC1` (stereo not shown) [MDPV, 3,4-methylenedioxypyrovalerone, reference compound] as the molecule, how does the “stability of MDPV in plasma, time stable” value ([1]; at room temperature) read?
The value was 27 h.

What about the “stability of MDPV in plasma, time stable” value ([1]; at −20°C) of the same molecule?
Its value is 600 h.

And the “stability of MDPV in plasma, freeze-thaw cycles” value [1]?
The value was 3 freeze-thaw cycles.

And the “concentration in plasma, horse-doping” value [2]?
The value was 5.8 ng/mL.

And the monoamine transporter blockade (monoamine transporter)?
The monoamine transporter blockade was “potent monoamine transporter blocker”.

What about the “stability in fortified plasma” value [3] of the same molecule?
Its value is “stable”.

What about the “Stability (% difference) 3 freeze-thaw cycles” value [4, 7] of the same molecule?
The value was 1.5 % difference.

What about the “Stability (% difference) 72h at 4°C” value [4, 7] of the same molecule?
The value was 3.5 % difference.

What about the “Stability (% difference) 3 freeze-thaw cycles” value [4, 8] of the same molecule?
Its value is 3.5 % difference.

And the “Stability (% difference) 72h at 4°C” value [4, 8]?
The value was 7.7 % difference.

And the “Stability (% difference) 3 freeze-thaw cycles” value [4, 9]?
The value was −1.1 % difference.

And the “Stability (% difference) 72h at 4°C” value [4, 9]?
The value was 2.2 % difference.

And the “MDPV blood concentrations, human performance cases” value ([5]; 9 human performance cases, ref 26 (Marinetti et al.))?
Its value is 6 to 368 µg/L.

And the “MDPV blood concentrations, postmortem cases” value ([5]; 23 postmortem cases, ref 26 (Marinetti et al.))?
The value was 10 to 640 µg/L.

What about the “serum MDPV concentrations” value ([5]; Finnish drivers stopped for suspicion of driving under the influence of drugs, ref 25 (Kriikku et al.)) of the same molecule?
The value was 20 to 8000 µg/L.

What about the “MDPV concentrations in human plasma, in most cases” value [5] of the same molecule?
The value was “below 1000 μg L^−1”.

What about the “change of plasma concentration without the deconjugation step (hydrolysis)” value ([6]; rat plasma after 0.5 mg kg-1 MDPV ip or sc, with vs without hydrolysis) of the same molecule?
The value was “did not change”.

And the “plasma concentration, Without hydrolysis” value ([6]; rat plasma, 0.5 mg kg-1 MDPV ip, 0 min (before dosing))?
Its value is “<LOQ”.

What about the “plasma concentration, Hydrolysis” value [6, 10] of the same molecule?
The value was 8.0 ng/mL.

What about the “plasma concentration, Without hydrolysis” value [6, 10] of the same molecule?
Its value is 9.4 ng/mL.

And the “plasma concentration, Hydrolysis” value [6, 11]?
The value was 6.6 ng/mL.

What about the “plasma concentration, Without hydrolysis” value [6, 11] of the same molecule?
Its value is 7.2 ng/mL.

And the “plasma concentration, Hydrolysis” value [6, 12]?
Its value is 7.6 ng/mL.

And the “plasma concentration, Without hydrolysis” value [6, 12]?
Its value is 8.4 ng/mL.

What about the “plasma concentration, Hydrolysis” value [6, 13] of the same molecule?
Its value is 3.6 ng/mL.

And the “plasma concentration, Without hydrolysis” value [6, 13]?
Its value is 2.9 ng/mL.

What about the “plasma concentration, Hydrolysis” value [6, 14] of the same molecule?
Its value is 1.8 ng/mL.

And the “plasma concentration, Without hydrolysis” value [6, 14]?
Its value is 2.2 ng/mL.

And the “plasma concentration, Hydrolysis” value [6, 15]?
The value was 1.3 ng/mL.

And the “plasma concentration, Without hydrolysis” value [6, 15]?
The value was 0.6 ng/mL.

And the “plasma concentration, Hydrolysis” value [6, 16]?
The value was 0.9 ng/mL.

And the “plasma concentration, Without hydrolysis” value [6, 16]?
The value was 1.2 ng/mL.

What about the “plasma concentration, Without hydrolysis” value ([6]; rat plasma, 0.5 mg kg-1 MDPV sc, 0 min (before dosing)) of the same molecule?
The value was “<LOQ”.

What about the “plasma concentration, Hydrolysis” value [6, 17] of the same molecule?
The value was 107.5 ng/mL.

And the “plasma concentration, Without hydrolysis” value [6, 17]?
Its value is 120.1 ng/mL.

What about the “plasma concentration, Hydrolysis” value [6, 18] of the same molecule?
The value was 82.1 ng/mL.

And the “plasma concentration, Without hydrolysis” value [6, 18]?
The value was 92.9 ng/mL.

What about the “plasma concentration, Hydrolysis” value [6, 19] of the same molecule?
Its value is 51.7 ng/mL.

What about the “plasma concentration, Without hydrolysis” value [6, 19] of the same molecule?
The value was 56.6 ng/mL.

And the “plasma concentration, Hydrolysis” value [6, 20]?
Its value is 38.4 ng/mL.

What about the “plasma concentration, Without hydrolysis” value [6, 20] of the same molecule?
The value was 34 ng/mL.

And the “plasma concentration, Hydrolysis” value [6, 21]?
The value was 9.9 ng/mL.

What about the “plasma concentration, Without hydrolysis” value [6, 21] of the same molecule?
Its value is 1.5 ng/mL.

And the “plasma concentration, Hydrolysis” value [6, 22]?
Its value is 4.8 ng/mL.

What about the “plasma concentration, Without hydrolysis” value [6, 22] of the same molecule?
Its value is 3.1 ng/mL.

And the “plasma concentration, Hydrolysis” value [6, 23]?
Its value is 1.7 ng/mL.

And the “plasma concentration, Without hydrolysis” value [6, 23]?
The value was 1.4 ng/mL.

What about the “plasma concentration range after intraperitoneal dosing” value ([6]; rat plasma, 0.5 mg kg^−1 MDPV intraperitoneal, samples 10-480 min after dosing) of the same molecule?
The value was 0.9 to 8.0 ng/mL.

What about the “plasma concentration range after the subcutaneous dose” value ([6]; rat plasma, 0.5 mg kg^−1 MDPV subcutaneous, samples 10-480 min after dosing) of the same molecule?
Its value is 1.7 to 107.5 ng/mL.

From PMC4150738 (Analytica chimica acta, 2014)
